Measurements published in patent US5648455A, “Antibiotic WAP-8294A, method for preparing the same and antibacterial composition” (Wakamoto Pharmaceutical Co., Ltd., priority 1994, dated 1997).
Converted amounts (≈) assume the structure as drawn. Numbered stars: 1 amine (or outer) side, 2 acyl side, 3 side chain; on linkers, the order of the positions; unused ones are H or OH. Bridge positions count the residues as written; N and C are the ends. Square brackets hold non-standard residues; d marks the D form. Peptide text beside a SMILES is read from it. ξ: configuration not given here. ξAsn(3ξ-OH) = NC(=O)C(O)C(N)C(=O)O; X2 = CC(C)CCCC(CC(=O)[*:1])O[*:2]; NMeF = CN[CH](Cc1ccccc1)C(=O)O; X1 = CCCCCC(CC(=O)[*:1])O[*:2]; NMeV = CN[CH](C(=O)O)C(C)C; Orn = NCCC[CH](N)C(=O)O

Experiments:
[1] = system: Gram-positive bacteria including MRSA (methicillin-resistant Staphylococcus aureus); experiment: Antibacterial activity, summary of Table 4; format: cell-based; conditions: for increase of antibacterial activity when 10% bovine serum is added to the culture medium: relative to culture medium without serum; for antibacterial activity against Gram-positive bacteria including MRSA: sensitive bouillon medium, Table 4
Experimental: (§1) The determination of the minimum inhibitory concentration (MIC) was carried out by broth dilution method which made use of a sensitive bouillon medium (available from Eiken Chemical Co., Ltd.).

[2] = system: Staphylococcus aureus No. 11 (MRSA clinically isolated strain); experiment: MIC, broth dilution, sensitive bouillon medium; format: cell-based
Experimental: as §1

[3] = system: Pseudomonas aeruginosa (ATCC 9027); experiment: MIC, broth dilution, sensitive bouillon medium; format: cell-based
Experimental: as §1

[4] = system: Candida albicans (TIMM 0239); experiment: MIC, broth dilution, sensitive bouillon medium; format: cell-based
Experimental: as §1

[5] = system: Bacillus subtilis (ATCC 6633); experiment: MIC, broth dilution, sensitive bouillon medium; format: cell-based
Experimental: as §1

[6] = system: Escherichia coli (ATCC 25922); experiment: MIC, broth dilution, sensitive bouillon medium; format: cell-based
Experimental: as §1

[7] = system: Staphylococcus aureus No. 1 (MRSA clinically isolated strain); experiment: MIC, broth dilution, sensitive bouillon medium; format: cell-based
Experimental: as §1

[8] = system: Staphylococcus aureus 371 R (MRSA clinically isolated strain); experiment: MIC, broth dilution, sensitive bouillon medium; format: cell-based
Experimental: as §1

[9] = system: Streptococcus pyogenes (ATCC 19615); experiment: MIC, broth dilution, sensitive bouillon medium; format: cell-based
Experimental: as §1

[10] = system: Staphylococcus aureus (ATCC 25923); experiment: MIC, broth dilution, sensitive bouillon medium; format: cell-based
Experimental: as §1

[11] = system: Aspergillus fumigatus (IAM 2004); experiment: MIC, broth dilution, sensitive bouillon medium; format: cell-based
Experimental: as §1

[12] = system: Staphylococcus epidermidis (ATCC 12228); experiment: MIC, broth dilution, sensitive bouillon medium; format: cell-based
Experimental: as §1

Solubility = format: physicochemical; conditions: solvents
[13] = system: Staphylococcus aureus No. 1 (a clinically isolated strain of MRSA); experiment: Protective effect against experimental systemic MRSA infection in mice; format: in vivo, ICR-MCH mice; conditions: dose 10 mg/kg, once subcutaneously one hour after infection
Experimental: (§2) The experiments were carried out by intra-peritoneally administering 0.5 mg/0.5 ml/mouse of cyclophosphamide to ICR-MCH mice [4-week-old male mice (available from Nippon CLEA Co., Ltd.), 8 animals per group] 3 days before the infection and then infecting the animals through intra-peritoneal administration of 0.5 ml each of a liquid containing 2×10^6 /ml of Staphylococcus aureus No. 1 strain supplemented with 5% mucin. One hour after the infection, 10 mg/kg of Vancomycin HCl (available from Shionogi & Co., Ltd.) and 0.2 ml/mouse of the antibiotic WAP-8294A (containing 10 mg/kg, 5 mg/kg, 2.5 mg/kg, 1.0 mg/kg, 0.5 mg/kg, 0.25 mg/kg, 0.1 mg/kg or 0.05 mg/kg of the antibiotic) was once subcutaneously injected to mice. To control groups, there was subcutaneously administered 0.2 ml each of physiological saline.

[14] = system: Staphylococcus aureus JCM8702 (a clinically isolated strain of MRSA); experiment: as above; format: in vivo, ICR-MCH mice; conditions: dose 10 mg/kg, once subcutaneously one hour after infection
Experimental: as §2, with “2×10^4” for “2×10^6”, “JCM8702” for “No. 1”, “WAP-8294AX” for “WAP-8294A”, “10” for “10 mg/kg, 5”, “1.0” for “1.0 mg/kg, 0.5 mg/kg, 0.25 mg/kg, 0.1”, “0.5” for “0.05”

[15] = Addition of Serum: 10% (bovine serum)

For `CCCCCC1CC(=O)NC(CO)C(=O)NC(C(O)C(N)=O)C(=O)NC(CO)C(=O)NCC(=O)N(C)C(Cc2ccccc2)C(=O)NC(CC(C)C)C(=O)NC(CCCN)C(=O)NC(CCC(=O)O)C(=O)NC(CC(N)=O)C(=O)NC(Cc2c[nH]c3ccccc23)C(=O)NC(CCCN)C(=O)N(C)C(C(C)C)C(=O)O1` (stereo not shown) [WAP-8294A1] (S[ξAsn(3ξ-OH)]SG[NMeF]L[Orn]ENW[Orn][NMeV]; linker N-C via X1; configuration not given here), the “increase of antibacterial activity when 10% bovine serum is added to the culture medium” value [1] was “not less than 8 times”, the “antibacterial activity against Gram-positive bacteria including MRSA” value [1] was “strong antibacterial activity” and the MIC [2, 15] was under 0.10 µg/mL. The MIC ([2]; Addition of Serum: None) was 0.39 µg/mL (≈ 0.252 µM), the MIC [3, 15] was over 100 µg/mL and the MIC ([3]; Addition of Serum: None) was over 100 µg/mL. It also gave an MIC [4, 15] of over 100 µg/mL, an MIC ([4]; Addition of Serum: None) of over 100 µg/mL and an MIC [5, 15] of under 0.10 µg/mL. It also gave an MIC ([5]; Addition of Serum: None) of 0.39 µg/mL (≈ 0.252 µM), an MIC [6, 15] of over 100 µg/mL and an MIC ([6]; Addition of Serum: None) of over 100 µg/mL. For the same compound, the MIC [7, 15] was under 0.10 µg/mL, the MIC ([7]; Addition of Serum: None) was 0.39 µg/mL (≈ 0.252 µM) and the MIC [8, 15] was under 0.10 µg/mL. The MIC ([8]; Addition of Serum: None) was 0.39 µg/mL (≈ 0.252 µM), the MIC [9, 15] was 25 µg/mL (≈ 16.1 µM) and the MIC ([9]; Addition of Serum: None) was 6.25 µg/mL (≈ 4.04 µM). The MIC [10, 15] was under 0.10 µg/mL, the MIC ([10]; Addition of Serum: None) was 0.39 µg/mL (≈ 0.252 µM) and the MIC [11, 15] was over 100 µg/mL. It also gave an MIC ([11]; Addition of Serum: None) of over 100 µg/mL, an MIC [12, 15] of under 0.10 µg/mL and an MIC ([12]; Addition of Serum: None) of 0.39 µg/mL (≈ 0.252 µM). The Solubility (Solubility) was “soluble in water, methanol, n-butanol, dimethylformamide and dimethylsulfoxide and insoluble in acetone, ethyl acetate and chloroform”.
For `CC(C)CCCC1CC(=O)NC(CO)C(=O)NC(C(O)C(N)=O)C(=O)NC(CO)C(=O)NCC(=O)N(C)C(Cc2ccccc2)C(=O)NC(CC(C)C)C(=O)NC(CCCN)C(=O)NC(CCC(=O)O)C(=O)NC(CC(N)=O)C(=O)NC(Cc2c[nH]c3ccccc23)C(=O)NC(CCCN)C(=O)N(C)C(C(C)C)C(=O)O1` (stereo not shown) [WAP-8294A2] (S[ξAsn(3ξ-OH)]SG[NMeF]L[Orn]ENW[Orn][NMeV]; linker N-C via X2; configuration not given here), the “increase of antibacterial activity when 10% bovine serum is added to the culture medium” value [1] was “not less than 8 times”, the “antibacterial activity against Gram-positive bacteria including MRSA” value [1] was “strong antibacterial activity” and the MIC [2, 15] was under 0.10 µg/mL. For the same compound, the MIC ([2]; Addition of Serum: None) was 0.78 µg/mL (≈ 0.499 µM), the MIC [3, 15] was over 100 µg/mL and the MIC ([3]; Addition of Serum: None) was over 100 µg/mL. The MIC [4, 15] was over 100 µg/mL, the MIC ([4]; Addition of Serum: None) was over 100 µg/mL and the MIC [5, 15] was under 0.10 µg/mL. For the same compound, the MIC ([5]; Addition of Serum: None) was 0.78 µg/mL (≈ 0.499 µM), the MIC [6, 15] was over 100 µg/mL and the MIC ([6]; Addition of Serum: None) was over 100 µg/mL. It also gave an MIC [7, 15] of under 0.10 µg/mL, an MIC ([7]; Addition of Serum: None) of 0.78 µg/mL (≈ 0.499 µM) and an MIC [8, 15] of under 0.10 µg/mL. The MIC ([8]; Addition of Serum: None) was 0.78 µg/mL (≈ 0.499 µM), the MIC [9, 15] was 25 µg/mL (≈ 16 µM) and the MIC ([9]; Addition of Serum: None) was 6.25 µg/mL (≈ 4 µM). The MIC [10, 15] was under 0.10 µg/mL, the MIC ([10]; Addition of Serum: None) was 0.78 µg/mL (≈ 0.499 µM) and the MIC [11, 15] was over 100 µg/mL. For the same compound, the MIC ([11]; Addition of Serum: None) was over 100 µg/mL, the MIC [12, 15] was under 0.10 µg/mL and the MIC ([12]; Addition of Serum: None) was 0.78 µg/mL (≈ 0.499 µM). For the same compound, the Solubility (Solubility) was “soluble in water, methanol, n-butanol, dimethylformamide and dimethylsulfoxide and insoluble in acetone, ethyl acetate and chloroform”.
In the case of `CN[C@H](CC(C)C)C(=O)N[C@H]1C(=O)N[C@@H](CC(N)=O)C(=O)N[C@H]2C(=O)N[C@H]3C(=O)N[C@H](C(=O)N[C@H](C(=O)O)c4cc(O)cc(O)c4-c4cc3ccc4O)[C@H](O)c3ccc(c(Cl)c3)Oc3cc2cc(c3O[C@@H]2O[C@H](CO)[C@@H](O)[C@H](O)[C@H]2O[C@H]2C[C@](C)(N)[C@H](O)[C@H](C)O2)Oc2ccc(cc2Cl)[C@H]1O` [Vancomycin], the “Survival/No. of Test Animals” value [13] is reported as 5/8 and the “Survival/No. of Test Animals” value [14] is reported as 5/8.
